“And” between values parts separate entries of the source, which are not always exact repeats. Identical values can stand only once. Toxic doses and inconclusive results are not listed. No stated cut-off is given here; in the data, active means T/C of 150% or more; inactive means T/C below 125%.
Tested on: L1210 leukemia ip in BDF1 mice, survival T/C
Test: NCI In Vivo Anticancer Drug Screen. Data for tumor model L1210 Leukemia (intraperitoneal) in B6D2F1 (BDF1) mice
Conditions: endpoint: mean survival time, higher = longer survival
In short: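 Read-out is survival time, reported as the treated-group measurement over the vehicle-control measurement.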

[1] = dose: 100.0 mg/kg/injection, schedule: Q01DX001 (ip), vehicle: saline
[2] = dose: 100.0 mg/kg/injection, schedule: Q01DX009 (ip), vehicle: saline sonified
[3] = dose: 100.0 mg/kg/injection, schedule: Q04DX003 (ip), vehicle: Klucel (hydroxypropylcellulose) (HPC)
[4] = dose: 200.0 mg/kg/injection, schedule: Q01DX001 (ip), vehicle: saline
[5] = dose: 200.0 mg/kg/injection, schedule: Q01DX009 (ip), vehicle: saline sonified
[6] = dose: 200.0 mg/kg/injection, schedule: Q04DX003 (ip), vehicle: Klucel (hydroxypropylcellulose) (HPC)
[7] = dose: 400.0 mg/kg/injection, schedule: Q01DX001 (ip), vehicle: saline
[8] = dose: 400.0 mg/kg/injection, schedule: Q04DX003 (ip), vehicle: Klucel (hydroxypropylcellulose) (HPC)
[9] = dose: 100.0 mg/kg/injection, schedule: Q01DX001 (ip), vehicle: Klucel (hydroxypropylcellulose) (HPC)
[10] = dose: 200.0 mg/kg/injection, schedule: Q01DX001 (ip), vehicle: Klucel (hydroxypropylcellulose) (HPC)
[11] = dose: 25.0 mg/kg/injection, schedule: Q04DX003 (ip), vehicle: Klucel (hydroxypropylcellulose) (HPC)
[12] = dose: 50.0 mg/kg/injection, schedule: Q04DX003 (ip), vehicle: Klucel (hydroxypropylcellulose) (HPC)
[13] = dose: 100.0 mg/kg/injection, schedule: Q01DX009 (ip), vehicle: Klucel (hydroxypropylcellulose) (HPC)
[14] = dose: 50.0 mg/kg/injection, schedule: Q01DX001 (ip), vehicle: Klucel (hydroxypropylcellulose) (HPC)

Measured: T/C

Ic1ncnc2c1ncn2C1CCCCO1 (stereo not given)
inactive: dose: 31.0 mg/kg/injection, schedule: Q01DX Z (ip), vehicle: other 111 % of control | dose: 62.0 mg/kg/injection, schedule: Q01DX Z (ip), vehicle: other 109 % of control | [1] 98 % of control | [2] 96 % of control | [3] 93 % of control | dose: 125.0 mg/kg/injection, schedule: Q01DX Z (ip), vehicle: other 103 % of control | [4] 107 % of control | [5] 93 % of control | [6] 94 % of control | dose: 250.0 mg/kg/injection, schedule: Q01DX Z (ip), vehicle: other 111 % of control | dose: 375.0 mg/kg/injection, schedule: Q01DX Z (ip), vehicle: other 114 % of control | [7] 104 % of control | [8] 98 % of control | dose: 500.0 mg/kg/injection, schedule: Q01DX Z (ip), vehicle: other 121 % of control

CCOc1ccc(-n2c(O)c(N=Nc3ccc(Cl)cc3)c(=O)n(-c3ccccc3)c2=S)cc1
inactive: [9] 104 % of control | [10] 105 % of control | dose: 400.0 mg/kg/injection, schedule: Q01DX001 (ip), vehicle: Klucel (hydroxypropylcellulose) (HPC) 94 % of control

Nc1c(Br)cc(Br)c2ccccc12
inactive: dose: 100.0 mg/kg/injection, schedule: Q01DX009 (ip), vehicle: acetone 93 % of control | dose: 100.0 mg/kg/injection, schedule: Q04DX003 (ip), vehicle: saline with Tween-80 97 % of control | dose: 200.0 mg/kg/injection, schedule: Q01DX009 (ip), vehicle: acetone 91 % of control | dose: 200.0 mg/kg/injection, schedule: Q04DX003 (ip), vehicle: saline with Tween-80 92 % of control | dose: 400.0 mg/kg/injection, schedule: Q01DX009 (ip), vehicle: acetone 93 % of control | dose: 400.0 mg/kg/injection, schedule: Q04DX003 (ip), vehicle: saline with Tween-80 97 % of control

CCCCCCCc1cc(O)c2c3c(c(=O)oc2c1)CCC(C)C3 (stereo not given)
inactive: dose: 75.0 mg/kg/injection, schedule: Q04DX003 (ip), vehicle: Klucel (hydroxypropylcellulose) (HPC) 93 % of control | dose: 150.0 mg/kg/injection, schedule: Q04DX003 (ip), vehicle: Klucel (hydroxypropylcellulose) (HPC) 92 % of control | dose: 300.0 mg/kg/injection, schedule: Q04DX003 (ip), vehicle: Klucel (hydroxypropylcellulose) (HPC) 93 % of control

Cc1cccc(NC(=O)Nc2cccc3ccccc23)c1C
inactive: dose: 25.0 mg/kg/injection, schedule: Q01DX009 (ip), vehicle: Klucel (hydroxypropylcellulose) (HPC) 92 % of control | [11] 94 % of control | dose: 50.0 mg/kg/injection, schedule: Q01DX009 (ip), vehicle: Klucel (hydroxypropylcellulose) (HPC) 96 % of control | [12] 89 % of control | [13] 92 % of control | [3] 91 % of control | [6] 93 % of control | [8] 91 % of control

CCCCCCCCCCOc1ccccc1C(=O)NCCN1CCCC1
inactive: dose: 15.0 mg/kg/injection, schedule: Q01DX015 (ip), vehicle: saline 88 % of control | dose: 30.0 mg/kg/injection, schedule: Q01DX015 (ip), vehicle: saline 91 % of control | dose: 60.0 mg/kg/injection, schedule: Q01DX015 (ip), vehicle: saline 91 % of control | dose: 120.0 mg/kg/injection, schedule: Q01DX015 (ip), vehicle: saline 88 % of control

COc1ccccc1/C(C)=N\NC(N)=O
inactive: [1] 97 % of control | [4] 93 % of control | [7] 103 % of control

CC(=O)Oc1cccc2cc3cc(C)cc(OC(C)=O)c3c(OC(C)=O)c12
inactive: dose: 0.5 mg/kg/injection, schedule: Q01DX001 (ip), vehicle: saline 106 % of control | dose: 1.0 mg/kg/injection, schedule: Q01DX001 (ip), vehicle: saline 104 % of control | dose: 2.0 mg/kg/injection, schedule: Q01DX001 (ip), vehicle: saline 108 % of control | dose: 4.0 mg/kg/injection, schedule: Q01DX001 (ip), vehicle: saline 110 % of control | dose: 5.0 mg/kg/injection, schedule: Q01DX001 (ip), vehicle: saline 108 % of control | dose: 8.0 mg/kg/injection, schedule: Q01DX001 (ip), vehicle: saline 116 % of control

COC(=O)C1CCC=C2C1CC1CC2C1(C)C (stereo not given)
inactive: [3] 97 % of control | [6] 103 % of control | [8] 95 % of control

CCCN(CCC)NC(=O)c1ccc(N=NN(C)C)cc1
inactive: dose: 25.0 mg/kg/injection, schedule: Q01DX001 (ip), vehicle: other 106 % of control | dose: 50.0 mg/kg/injection, schedule: Q01DX001 (ip), vehicle: other 98 % of control | dose: 100.0 mg/kg/injection, schedule: Q01DX001 (ip), vehicle: other 106 % of control | dose: 100.0 mg/kg/injection, schedule: Q01DX001 (ip), vehicle: saline with Tween-80 101 % of control

CCP(CC)SC1OC(COC(C)=O)C(OC(C)=O)C(OC(C)=O)C1OC(C)=O (stereo not given)
inactive: [14] 102 % of control | [9] 101 % of control | [10] 98 % of control

CC(=O)Nc1ccc(OC(=O)Nc2cccc(Cl)c2Cl)cc1
inactive: [13] 102 % of control | dose: 200.0 mg/kg/injection, schedule: Q01DX009 (ip), vehicle: Klucel (hydroxypropylcellulose) (HPC) 101 % of control | dose: 400.0 mg/kg/injection, schedule: Q01DX009 (ip), vehicle: Klucel (hydroxypropylcellulose) (HPC) 97 % of control

CS(=O)(=O)C(=O)O
inactive: [1] 96 % of control | [4] 101 % of control | [7] 98 % of control

Cc1cc(Cl)c(C)cc1Cl
inactive: [2] 107 % of control | dose: 100.0 mg/kg/injection, schedule: Q04DX003 (ip), vehicle: saline sonified 100 % of control | [5] 110 % of control | dose: 200.0 mg/kg/injection, schedule: Q04DX003 (ip), vehicle: saline sonified 101 % of control | dose: 400.0 mg/kg/injection, schedule: Q01DX009 (ip), vehicle: saline sonified 102 % of control | dose: 400.0 mg/kg/injection, schedule: Q04DX003 (ip), vehicle: saline sonified 94 % of control

O/N=C1/CC2CCC(C2)C1(O)c1ccccc1 (stereo not given)
inactive: [1] 103 % of control | [4] 113 % of control | [7] 103 % of control

C[N+](C)(C)CC1(COC(=O)C(O)(c2ccccc2)c2ccccc2)CC1
inactive: dose: 12.0 mg/kg/injection, schedule: Q04DX003 (ip), vehicle: Klucel (hydroxypropylcellulose) (HPC) 97 % of control | dose: 25.0 mg/kg/injection, schedule: Q01DX001 (ip), vehicle: Klucel (hydroxypropylcellulose) (HPC) 93 % of control | [11] 105 % of control | [14] 100 % of control | [12] 95 % of control | [9] 96 % of control and 100 % of control

O=C(CCNc1ccccc1)c1ccccc1
inactive: dose: 50.0 mg/kg/injection, schedule: Q01DX009 (ip), vehicle: saline 95 % of control | dose: 100.0 mg/kg/injection, schedule: Q01DX009 (ip), vehicle: saline 95 % of control | dose: 100.0 mg/kg/injection, schedule: Q04DX002 (ip), vehicle: saline 105 % of control | dose: 200.0 mg/kg/injection, schedule: Q04DX002 (ip), vehicle: saline 108 % of control

CCC(CC)C(O)(C(=O)O)C(CC)CC
inactive: [1] 95 % of control | [4] 89 % of control | [7] 97 % of control

Source: PubChem BioAssay AID248 (DTP/NCI, 2004)
